We go through 39 compounds from PubChem BioAssay AID488836 (Broad Institute, 2010).

Records with an inconclusive call do not appear. Calls of active or inactive are those of the source. No rule for the calls is given here.

A short description of one assay: PubChem AID 488836. The note with it: C. albicans CaCi-2 growth with fluconazole, Alamar Blue, 48 h. Background: Alamar Blue is a resazurin reagent that responds to reducing activity.
Assay [1] deals with C. albicans CaCi-2 (fluconazole-resistant clinical isolate) growth with fluconazole, Alamar Blue, 48 h. As to the kind of experiment: PubChem AID 488836.

As for `O=C(Cn1nc(-c2ccccc2)c2cc(Cl)ccc21)N1CCOCC1`, the activity change, negative = inhibition in “PubChem AID 488836” (at 6 µM (top of the series)) is -5.03% (inactive). Turning to `O=C(O)c1c2ccccc2nn1Cc1ccc(Cl)cc1`, the activity change, negative = inhibition in “PubChem AID 488836” (at 6 µM (top of the series)) was -8.46% (inactive). Turning to `COC(=O)Cn1nc(-c2ccccc2)c2ccccc21`, in assay [1], the AC50 (in general, the concentration at which the activity in the assay is half-maximal) was 1260 nM. `CCN(CC)C(=O)Cn1c2ccccc2c2nc3n(c(=O)c21)CCS3`: the AC50 in assay [1] is 2280 nM. As to `O=C(c1csc2ccccc12)N1CCN(c2ccnc3cc(Cl)ccc23)CC1`, in assay [1], the half-maximal activity concentration (AC50) was 1680 nM. As to `CC1CCN(C(=O)Cn2c3ccccc3c3nc4n(c(=O)c32)CCS4)CC1`, in assay [1], the half-maximal activity concentration (AC50) is 2940 nM. As to `Cc1ccc(C(=O)N2CCN(c3ccnc4cc(Cl)ccc34)CC2)cc1`, the concentration at half-maximal activity (AC50) in assay [1] was 2330 nM. For the compound `O=C(Cn1nc(-c2ccccc2)c2ccccc21)NCc1ccc(Cl)cc1`, the activity change, negative = inhibition in “PubChem AID 488836” (at 6 µM (top of the series)) is -18.4% (inactive).

In the case of `CCCNC(=O)Cn1nc(-c2ccccc2)c2cc(Cl)ccc21`, the activity change, negative = inhibition in the assay “PubChem AID 488836” (at 6 µM (top of the series)) was 38.1% (inactive).

As to `COC(=O)Cn1nc(C)c2ccccc21`, the activity change, negative = inhibition in the assay “PubChem AID 488836” (at 6 µM (top of the series)) is -0.315% (inactive).

Consider `CCOC(=O)c1nn(Cc2ccc(Cl)cc2)c2ccccc12`, for which, in the assay “PubChem AID 488836” (at 6 µM (top of the series)), the activity change, negative = inhibition was -6.26% (inactive). On to `O=C(c1ccc(Cl)cc1)N1CCN(c2ccc(Cl)cc2)CC1`, for which the AC50 in assay [1] is 6130 nM. For `O=C(c1ccccc1)N1CCN(c2ccnc3cc(Cl)ccc23)CC1`, the AC50 in assay [1] is 3350 nM. Take `O=c1c2[nH]c3ccc(F)cc3c2nc2n1CCS2`: the AC50 in assay [1] was 4080 nM. Turning to `COC(=O)Cn1nc(-c2ccc(Cl)cc2)c2ccccc21`, the activity change, negative = inhibition in the assay “PubChem AID 488836” (at 6 µM (top of the series)) is -11% (inactive).

Turning to `CCCNC(=O)Cn1nc(-c2ccccc2)c2ccccc21`, the activity change, negative = inhibition in the assay “PubChem AID 488836” (at 6 µM (top of the series)) was 12.1% (inactive). Consider `Cc1nn(S(C)(=O)=O)c2ccccc12`, for which, in “PubChem AID 488836” (at 6 µM (top of the series)), the activity change, negative = inhibition was -21% (inactive). For the compound `O=C(Cn1c2ccccc2c2nc3n(c(=O)c21)CCS3)N1CCCC1`, the AC50 in assay [1] was 2300 nM.

For the compound `O=C(Cn1nc(-c2ccccc2)c2ccccc21)N1CCc2ccccc2C1`, the activity change, negative = inhibition in “PubChem AID 488836” (at 6 µM (top of the series)) is -26.7% (inactive). In the case of `O=C(Cn1nc(C(=O)N2CCCCC2)c2ccccc21)N1CCOCC1`, the activity change, negative = inhibition in “PubChem AID 488836” (at 6 µM (top of the series)) was -5.52% (inactive). As for `COc1ccc2c(c1)c1nc3n(c(=O)c1n2CC(=O)N1CCC(Cc2ccccc2)CC1)CCS3`, in “PubChem AID 488836” (at 6 µM (top of the series)), the activity change, negative = inhibition was -7.32% (inactive). For `O=C(c1ccc(Cl)cc1)N1CCN(c2cc(C(F)(F)F)nc3ccccc23)CC1`, the activity change, negative = inhibition in “PubChem AID 488836” (at 6 µM (top of the series)) was -20% (inactive).

For the compound `COc1ccc(OC)c2c(C)cc(N3CCN(C(=O)c4ccc(Cl)cc4)CC3)nc12`, the activity change, negative = inhibition in “PubChem AID 488836” (at 6 µM (top of the series)) is -2.61% (inactive). `O=C(c1ccc(Cl)c(Cl)c1)N1CCN(c2ccnc3cc(Cl)ccc23)CC1`: the AC50 in assay [1] was 1020 nM. The same measure, in the same setting: under `O=C(Nc1ccc(C(F)(F)F)cc1)N1CCN(c2ccnc3cc(Cl)ccc23)CC1` stands 1810 nM.

With `O=C(O)c1nn(Cc2ccc(Cl)cc2)c2ccccc12`, the activity change, negative = inhibition in the assay “PubChem AID 488836” (at 6 µM (top of the series)) is -11.2% (inactive). Regarding `O=C(c1ccc(Cl)cc1)N1CCN(c2ccnc3cc(Cl)ccc23)CC1`, in assay [1], the half-maximal activity concentration (AC50) is 651 nM. In the case of `O=S(=O)(c1ccc(Cl)cc1)N1CCN(c2ccnc3cc(Cl)ccc23)CC1`, in “PubChem AID 488836” (at 6 µM (top of the series)), the activity change, negative = inhibition was -15.5% (inactive). Turning to `CC1CCN(C(=O)Cn2c3ccc(F)cc3c3nc4n(c(=O)c32)CCCS4)CC1`, the concentration at half-maximal activity (AC50) in assay [1] is 3540 nM. `O=C(Cn1c2ccccc2c2nc3n(c(=O)c21)CCS3)NCCc1ccc(Cl)cc1`: the activity change, negative = inhibition in the assay “PubChem AID 488836” (at 6 µM (top of the series)) is -13.4% (inactive). In the case of `O=C(c1cccs1)N1CCN(c2ccnc3cc(Cl)ccc23)CC1`, in assay [1], the AC50 is 2720 nM. As to `COC(=O)Cn1nc(-c2ccc(C)cc2)c2ccccc21`, the AC50 in assay [1] was 103 nM. As for `O=C(Cn1c2ccccc2c2nc3n(c(=O)c21)CCCS3)c1ccc(F)cc1`, the activity change, negative = inhibition in the assay “PubChem AID 488836” (at 6 µM (top of the series)) was -14.2% (inactive). In the case of `COc1ccc2c(c1)c1nc3n(c(=O)c1n2CC(=O)N1CCC(C)CC1)CCS3`, in the assay “PubChem AID 488836” (at 0.6 µM (top of the series)), the activity change, negative = inhibition is 13.2% (inactive). Consider `CC1CCN(C(=O)Cn2c3ccccc3c3nc4n(c(=O)c32)CCCS4)CC1`, for which the AC50 in assay [1] is > 6000 nM (inactive). Regarding `c1ccc(-c2n[nH]c3ccccc23)cc1`, the activity change, negative = inhibition in “PubChem AID 488836” (at 6 µM (top of the series)) is 4.54% (inactive). For `COc1ccc(NC(=O)Cn2c3ccccc3c3nc4n(c(=O)c32)CCS4)cc1`, in assay [1], the half-maximal activity concentration (AC50) was 4100 nM. As for `O=c1c2[nH]c3ccccc3c2nc2n1CCS2`, in the assay “PubChem AID 488836” (at 6 µM (top of the series)), the activity change, negative = inhibition was -39.9% (inactive).

In the case of `CCOC(=O)c1c2ccccc2nn1Cc1ccc(Cl)cc1`, the activity change, negative = inhibition in the assay “PubChem AID 488836” (at 6 µM (top of the series)) was -7.34% (inactive).
